These results are taken from US20230174938A1, “METHODS AND COMPOSITIONS FOR GENERATING HUMAN ERYTHROID PROGENITOR CELLS” (Trailhead Biosystems Inc., priority 2021, published 2023).

Assay [1] relates to erythroid progenitors from GATA1+ MEP cells. Briefly: Factor criticality analysis (dynamic profile), stage 2 recipe. The arrangement: unit not given here. The format is cell-based, human. Here is the method: (§1) To assess the impact of the elimination of each validated factor identified for the stage 1 and 2 recipes as described in Example 1, dynamic profile analysis was used and compared the expression level of genes of interest in absence of each finalized factor while others are present.
In the stage 2 recipe, each of the five finalized factors was removed while the other four factors remained present and the expression levels of GATA1, HBA1, GYPA (CD235) and TFRC were assessed compared to the presence of all five factors. When EPO was removed, the values of GATA1 decreased from 1386 to 736, the values of HBA1 changed from 700 to 285, the values of GYPA decreased from 345 to 61 and the values of TFRC dropped from 2943 to 898. All changes represent a significant loss of expression of a desired gene.

The subject of assay [2] is GATA1 bipotential progenitor (MEP progenitor) from human cord blood CD34+ cells. Briefly: HD-DoE 12-factor experiment optimized for maximum expression of HBA1 (stage 2). Particulars: 12-factor model optimized for maximum HBA1 expression; 3 days after stage 1. The assay is classed as cell-based. The method, then: To engineer the stage 2 media, first CD34+ cells from human cord blood cells were cultured for 5 days in stage 1 media (Table 1), which converts hematopoietic stem cells to a GATA1 bipotential progenitor (MEP progenitor). This progenitor has the potential to differentiate to erythroid and megakaryocyte lineages. To further guide the differentiation of GATA1 bipotential progenitor, an additional HD-DoE experiment was performed. […] The basis of this was a 12-factor HD-DoE experiment with focus on differentiation of cells toward the erythroid lineage for an additional 3 days after termination of stage 1 treatment.
To test the effectors, 96 different combinations of effectors generated using Design-of-Experiments compression through D-optimality were robotically prepared. The effector combinations were prepared in a basal media and were subsequently added to the cells, which were then allowed to differentiate. Three days later RNA extraction was performed, and gene expression was obtained using quantitative PCR analysis. The data were normalized and modeled using partial least squares regression analysis to the effector design, resulting in the generation of gene-specific models, which after model tuning for maximal Q2 predictive power, provided explanation of the effectors ability to control the expression of individual genes, combinatorically, and individually. Solutions within the tested space could then be explored to address desirability.
This model was derived from initial testing of twelve factors including: HB-EGF, Optiferrin, SR1, knockout serum, ibuprofen, GM-CSF, holo-transferrin, EPO, eltrombopag, Neuregulin 1, THI0019 and AICAR.

Assay [3] relates to CD34+ population of cells isolated from cord blood. Briefly: HD-DoE 8-factor experiment optimized for maximum expression of GATA1 (stage 1). Particulars: for factor contribution: 8-factor model optimized for maximum GATA1 expression, 3-day treatment. The assay is classed as cell-based, human. Here is the method:
The effector combinations were prepared in a basal media and were subsequently added to the cells, which were then allowed to differentiate. […] Solutions within the tested space could then be explored to address desirability.

For assay [4], the system named is MEP progenitor from CD34+ HSCs. Briefly: Factor criticality analysis (dynamic profile), stage 1 recipe. The format is cell-based, human. The arrangement: unit not given here. Here is the method: as §1
In the stage 1 recipe, each of the five finalized factors was removed while the other four factors remained present and the expression levels of GATA2, GATA1, CD36 and TFRC were assessed compared to the presence of all five factors.

The subject of a further assay is HBA expression. Briefly: Refinement of stage 2 recipe: HBA expression modelling and cell number. Particulars: higher concentration: holo-transferrin 600 ug/mL, EPO 4 U/mL; or supplement added. The format is cell-based, human. The method, then: In order to refine the stage 2 recipe, more modelling experiments were conducted using the same factors as the stage 2 recipe but testing different concentrations of critical factors such as EPO and holo-transferrin. Additionally, because lipid inputs are critical for RBC differentiation, a commercial cholesterol supplement (Sigma) was tested.

The next assay relates to CD34 cells. Briefly: HD-DoE 6-factor experiment optimized for maximum expression of GATA1. The assay is classed as cell-based, human. The method, then:
To test whether EPO or other commonly used cytokines are required for GATA1 induction, we conducted experiments with 6 factors in a range of concentrations. On this experiment CD34 cells were thawed and kept overnight in media containing SCF 10 ng/mL. On the next day, 48 different combinations of effectors were added to the cells, and SCF 5 ng/mL was kept in all the wells.

The mark [5] stands for this setting: named factor removed, other four present.

In the case of `NC(=O)c1ncn([C@@H]2O[C@H](CO)[C@@H](O)[C@H]2O)c1N` [AICAR, reference compound], the values for the GYPA expression in assay [1] (all five factors present) and in assay [1] (setting [5]) were 337 and 256, respectively. In addition, the HBA1 expression in assay [1] (all five factors present) was 689; in assay [1] (setting [5]) it was 569. In addition, the factor contribution in assay [2] turned out to be 9.
For the molecule `C=C1C(=O)O[C@@H]2C[C@@]3(C)CCC[C@H](C)C3=C[C@H]12` [Alantolactone], the factor contribution in assay [3] came to 8. In assay [3] (8-factor model, GATA1), the “impact on GATA1 expression” value is reported as “supportive of GATA1 induction”. In addition, the GATA1 expression stood at 510 in assay [4] (all five factors present) and 460 in assay [4] (setting [5]).
On to `NC1(c2ccc(-c3nc4ccn5c(=O)[nH]nc5c4cc3-c3ccccc3)cc2)CCC1` [MK2206], for which the factor contribution in assay [3] is reported as 17. In addition, the figures for the GATA1 expression in assay [4] (all five factors present) and in assay [4] (setting [5]) were 510 and 400, respectively.
With `CC(C)n1cnc2c(NCCc3ccc(O)cc3)nc(-c3csc4ccccc34)nc21` [SR1], the factor contribution in assay [3] is reported as 6; in assay [2], 7. Moreover, the GATA1 expression in assay [4] (all five factors present) turned out to be 510; in assay [4] (setting [5]) it was 410. Also, the TFRC expression in assay [4] (all five factors present) was 970; in assay [4] (setting [5]), 570. In addition, the HBA1 expression in assay [1] (all five factors present) stood at 700; in assay [1] (setting [5]), 597.
For EPO: EPOR agonist, erythropoietin, the HBA expression entry with HBA expression was “higher HBA expression”. For the same molecule, in the assay with CD34 cells (6-factor model), the “requirement for GATA1 induction” value is listed as “not required for GATA1 induction”. In assay [1] (all five factors present), this molecule displayed a GATA1 expression of 1386, a GYPA expression of 345, an HBA1 expression of 700 and a TFRC expression of 2943. In assay [1] (setting [5]), this molecule registered a GATA1 expression of 736, a GYPA expression of 61, an HBA1 expression of 285 and a TFRC expression of 898. Moreover, the factor contribution in assay [2] is listed as 31.
For holotransferrin: Iron source, the HBA expression entry in the assay with HBA expression is “higher HBA expression”. In assay [1] (all five factors present), this molecule yielded a GATA1 expression of 1370, a GYPA expression of 330, an HBA1 expression of 688 and a TFRC expression of 2883. In assay [1] (setting [5]), this molecule showed a GATA1 expression of 967, a GYPA expression of 170, an HBA1 expression of 500 and a TFRC expression of 1703.

B1: Activin A: a member of the TGFβ family (protein, UniProt P08476 311-426, looked up)
Inhibin beta A chain: GLECDGKVNICCKKQFFVSFKDIGWNDWIIAPSGYHANYCEGECPSHIAGTSGSSLSFHSTVINHYRMRGHSPFANLKSCCVPTKLRPMSMLYYDDGQNIIKKDIQNMIVEECGCS
On to B1, for which the factor contribution in the assay on CD34 cells (6-factor model optimized for maximum GATA1 expression, SCF 5 ng/mL in all wells) is reported as 33.
